Results on 30 compounds are retold here after ChEMBL document CHEMBL1136547, “2,3-Diarylbenzopyran derivatives as a novel class of selective cyclooxygenase-2 inhibitors” (Bioorg Med Chem Lett, 2003).

The target of data set [1] is T1, Prostaglandin G/H synthase 2 (Mus musculus) (UniProt Q05769).
T1 sequence (whole entry): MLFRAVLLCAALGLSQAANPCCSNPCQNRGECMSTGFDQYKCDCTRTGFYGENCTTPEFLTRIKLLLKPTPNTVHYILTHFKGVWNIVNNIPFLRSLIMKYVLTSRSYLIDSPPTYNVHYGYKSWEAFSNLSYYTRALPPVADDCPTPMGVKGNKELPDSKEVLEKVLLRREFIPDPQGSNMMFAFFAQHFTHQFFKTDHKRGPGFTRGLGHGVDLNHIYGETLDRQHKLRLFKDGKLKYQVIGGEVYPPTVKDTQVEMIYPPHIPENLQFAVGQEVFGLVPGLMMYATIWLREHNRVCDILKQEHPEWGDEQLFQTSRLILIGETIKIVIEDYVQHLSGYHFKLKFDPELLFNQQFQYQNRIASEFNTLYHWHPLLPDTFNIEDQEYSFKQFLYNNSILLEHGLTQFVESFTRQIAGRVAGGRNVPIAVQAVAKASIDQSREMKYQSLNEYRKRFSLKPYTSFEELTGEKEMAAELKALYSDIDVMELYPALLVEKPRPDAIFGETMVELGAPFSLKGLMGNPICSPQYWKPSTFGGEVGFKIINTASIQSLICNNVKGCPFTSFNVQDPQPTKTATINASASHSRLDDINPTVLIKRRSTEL
Put plainly: In vitro percentage inhibition against Prostaglandin G/H synthase 2 using freshly harvested mouse peritoneal macrophages at 10 ug/mL concentration.

The target in data set [2] is T2, Prostaglandin G/H synthase 1 (Mus musculus) (UniProt P22437).
T2 sequence (whole entry): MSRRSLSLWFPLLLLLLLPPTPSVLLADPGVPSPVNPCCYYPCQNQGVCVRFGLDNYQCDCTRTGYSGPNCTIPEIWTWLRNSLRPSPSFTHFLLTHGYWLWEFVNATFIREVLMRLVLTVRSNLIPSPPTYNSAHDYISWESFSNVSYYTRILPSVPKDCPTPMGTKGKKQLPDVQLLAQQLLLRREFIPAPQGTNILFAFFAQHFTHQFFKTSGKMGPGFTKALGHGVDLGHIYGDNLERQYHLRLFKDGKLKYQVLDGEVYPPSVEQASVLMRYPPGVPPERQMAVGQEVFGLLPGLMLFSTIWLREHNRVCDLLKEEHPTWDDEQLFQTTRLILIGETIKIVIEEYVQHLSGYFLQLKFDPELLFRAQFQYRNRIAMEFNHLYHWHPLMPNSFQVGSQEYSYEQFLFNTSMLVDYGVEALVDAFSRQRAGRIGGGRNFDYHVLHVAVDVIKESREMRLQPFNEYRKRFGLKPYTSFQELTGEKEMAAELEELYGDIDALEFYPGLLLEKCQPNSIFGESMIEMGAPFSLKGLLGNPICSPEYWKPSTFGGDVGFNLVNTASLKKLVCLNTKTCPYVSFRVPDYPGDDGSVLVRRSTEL
In words: In vitro percentage inhibition against prostaglandin G/H synthase 1 using freshly harvested mouse peritoneal macrophages at 10 ug/mL concentration.

The target of data set [3] is T3, Prostaglandin G/H synthase 2 (Mus musculus, UniProt Q05769).
T3 sequence (Q05769 whole entry): T1 sequence (whole entry)
In words: In vitro inhibitory concentration against prostaglandin G/H synthase 2 using freshly harvested mouse peritoneal macrophages.

Data set [4] addresses T1, Prostaglandin G/H synthase 2 (Mus musculus). Put plainly: In vitro percentage inhibition against Prostaglandin G/H synthase 2 using freshly harvested mouse peritoneal macrophages at 3 ug/mL concentration.
Data set [5] relates to Rattus norvegicus. Put plainly: Anti-inflammatory activity in Dawley rats by carrageenan-induced rat paw edema at a dose of 30 mg/kg by oral administration. It is filed as functional.
Data set [6] is described as follows: Tmax in rat at 10 mg/kg. In kind it is ADME, organism-based. More on the design: dose 10 mg/kg. As to conditions: in vivo.
Data set [7] has as its system Rattus norvegicus. Put plainly: Anti-inflammatory activity in Dawley rats by carrageenan-induced rat paw edema at a dose of 10 mg/kg by oral administration. It is filed as functional.
Data set [8] in a line: Cmax in rat at 10 mg/kg. In kind it is ADME, organism-based. As to conditions: in vivo. More on the design: dose 10 mg/kg.
The nature of data set [9]: Half-life period in rat at 10 mg/kg. It is filed as ADME, organism-based. More on the design: dose 10 mg/kg. As to conditions: in vivo.
The test system of data set [10] is Rattus norvegicus. In words: Anti-inflammatory activity in Dawley rats by carrageenan-induced rat paw edema at a dose of 3 mg/kg by oral administration. In kind it is functional.
Data set [11] has as its system Rattus norvegicus. In words: Anti-inflammatory activity in Dawley rats by carrageenan-induced rat paw edema at a dose of 3 mg/kg. In kind it is functional.
Data set [12] relates to Rattus norvegicus. In words: Anti-inflammatory activity in Dawley rats by carrageenan-induced rat paw edema at a dose of 30 mg/kg. It is filed as functional.
For data set [13], the target named is T2, Prostaglandin G/H synthase 1 (Mus musculus). Put plainly: In vitro percentage inhibition against using freshly harvested mouse peritoneal macrophages Prostaglandin G/H synthase 1 at 10 ug/mL concentration.

With `CS(=O)(=O)c1ccc(-c2oc3ccccc3c(=O)c2-c2ccncc2)cc1`, the inhibition is 24% in data set [1] and less than 5% in data set [2].

In turn, `CS(=O)(=O)c1ccc(-c2oc3ccccc3c(=O)c2-c2ccc(F)cc2)cc1` showed an IC50 in [3] of 0.203 µM. The inhibition in data set [2] is less than 5%.

Consider `CS(=O)(=O)c1ccc(-c2oc3ccccc3c(=O)c2-c2cc(Cl)cc(Cl)c2)cc1`, for which the results for the inhibition in data set [4] and in [2] were 7% and less than 5%, respectively.

For `CS(=O)(=O)c1ccc(-c2oc3ccccc3c(=O)c2-c2ccc(Cl)cc2)cc1`, in [2], the inhibition is less than 5%.

On to `NS(=O)(=O)c1ccc(-c2oc3ccccc3c(=O)c2-c2ccccc2F)cc1`, for which it took 0.177 µM to reach half-maximal inhibition in [3] (IC50). Moreover, the inhibition in data set [2] was found to be 60%.

`CS(=O)(=O)c1ccc(-c2oc3ccccc3c(=S)c2-c2ccc(F)cc2)cc1` had an IC50 in data set [3] of 0.0731 µM. Also, the inhibition in data set [2] is less than 5%.

Regarding `CS(=O)(=O)c1ccc(-c2oc3ccccc3c(=O)c2-c2ccccc2)cc1`, half-maximal inhibition in [3] (IC50) required 0.93 µM. Moreover, in [2], the inhibition is less than 5%.

`CS(=O)(=O)c1ccc(-c2oc3ccc(F)cc3c(=O)c2-c2cccnc2)cc1`: the inhibition in vivo at 30 mg/kg in the data set on Rattus norvegicus [5] was 41%. The Tmax in [6] was 5 h. This compound also displayed an inhibition in vivo at 10 mg/kg with Rattus norvegicus [7] of 26%. In addition, the 50% inhibitory concentration (IC50) in [3] is 1.26 µM. In addition, in data set [8], the Cmax was determined as 6900 ng/mL. In data set [9], this compound gave a half-life of 7.4 h. For the same compound, the inhibition in vivo at 3 mg/kg in the data set with Rattus norvegicus [10] was 20%. The compound further had an inhibition in [2] of 12%.

In the case of `NS(=O)(=O)c1ccc(-c2oc3ccccc3c(=O)c2-c2ccccc2)cc1`, the IC50 in data set [3] was 0.106 µM. In [2], this compound came in with an inhibition of 61%.

The compound `CS(=O)(=O)c1ccc(-c2oc3ccccc3c(=O)c2-c2cccc(Cl)c2)cc1` gave an IC50 in data set [3] of 0.365 µM. The same compound gave an inhibition in data set [2] of less than 5%.

In data set [3], `CS(=O)(=O)c1ccc(-c2oc3ccccc3c(=S)c2-c2ccccc2F)cc1` showed a 50% inhibitory concentration (IC50) of 0.195 µM. In addition, the inhibition in data set [2] is less than 5%.

As for `CS(=O)(=O)c1ccc(-c2oc3ccccc3c(=O)c2-c2ccc(Cl)cc2Cl)cc1`, half-maximal inhibition in data set [3] (IC50) was put at 0.359 µM. In [2], this compound registered an inhibition of less than 5%.

`COc1ccc(-c2c(-c3ccc(S(C)(=O)=O)cc3)oc3ccccc3c2=O)cc1` gave an IC50 in [3] of 0.517 µM. The compound further registered an inhibition in data set [2] of less than 5%.

As to `CS(=O)(=O)c1ccc(-c2oc3ccccc3c(=O)c2-c2cccc(F)c2)cc1`, in [3], the IC50 is 0.532 µM. The inhibition in data set [2] was less than 5%.

In turn, `CS(=O)(=O)c1ccc(-c2oc3ccccc3c(=O)c2-c2ccc(Cl)c(Cl)c2)cc1` showed an IC50 in data set [3] of 0.269 µM. In addition, in data set [2], the inhibition was less than 5%.

As to `CSc1ccc(-c2c(-c3ccc(S(N)(=O)=O)cc3)oc3ccccc3c2=O)cc1`, in data set [3], the IC50 is 0.283 µM. In data set [2], this compound gave an inhibition of 90%.

In data set [3], `CS(=O)(=O)c1ccc(-c2oc3ccccc3c(=O)c2-c2ccccc2F)cc1` gave a half-inhibitory concentration (IC50) of 0.0761 µM. In addition, in data set [2], the inhibition is less than 5%.

Compound `CS(=O)(=O)c1ccc(-c2oc3ccccc3c(=O)c2-c2cccnc2)cc1` yielded an inhibition in vivo at 3 mg/kg with Rattus norvegicus [11] of 18%. Also, at 30 mg/kg the inhibition in vivo with Rattus norvegicus [12] was 41%. The compound also displayed an inhibition in data set [2] of 13%.

As for `CS(=O)(=O)c1ccc(-c2oc3ccccc3c(=S)c2-c2ccc(Cl)c(Cl)c2)cc1`, half-maximal inhibition in [3] (IC50) required 0.52 µM. In [2], the inhibition is less than 5%.

In data set [3], `NS(=O)(=O)c1ccc(-c2oc3ccccc3c(=O)c2-c2ccc3c(c2)OCO3)cc1` showed an IC50 of 0.925 µM. Moreover, the inhibition in [13] is 75%.

Turning to `COc1ccc(-c2c(-c3ccc(S(C)(=O)=O)cc3)oc3ccccc3c2=S)cc1`, half-maximal inhibition in data set [3] (IC50) required 0.142 µM. In addition, the inhibition in [2] is less than 5%.

On to `CS(=O)(=O)c1ccc(-c2oc3ccccc3c(=O)c2-c2ccccn2)cc1`, for which the inhibition in [1] stood at 44%; in data set [2], 17%.

The compound `CS(=O)(=O)c1ccc(-c2oc3ccccc3c(=O)c2-c2cc3ccccc3s2)cc1` gave an IC50 in data set [3] of 0.324 µM. The same compound yielded an inhibition in data set [2] of less than 5%.

In data set [3], `Cc1ccccc1-c1c(-c2ccc(S(C)(=O)=O)cc2)oc2ccccc2c1=O` had an IC50 of 0.948 µM. In addition, in data set [2], the inhibition was less than 5%.

As for `NS(=O)(=O)c1ccc(-c2oc3ccccc3c(=O)c2-c2ccc(F)cc2)cc1`, in [3], the IC50 was 0.126 µM. Further, the inhibition in data set [2] is 67%.

In the case of `Cn1cc(-c2c(-c3ccc(S(C)(=O)=O)cc3)oc3ccccc3c2=O)cn1`, the inhibition in data set [1] was 13%; in data set [2], less than 5%.

`COc1ccc(-c2c(-c3ccc(S(C)(=O)=O)cc3)oc3ccccc3c2=O)cn1`: in [3], it took 2.31 µM to reach half-maximal inhibition (IC50). The compound also returned an inhibition in data set [2] of 18%.

Take `COc1ccc(-c2c(-c3ccc(S(N)(=O)=O)cc3)oc3ccccc3c2=O)cc1`: the IC50 in data set [3] was 0.393 µM. This compound returned an inhibition in [2] of 84%.

On to `CS(=O)(=O)c1ccc(-c2oc3ccccc3c(=O)c2-c2cccc3ccccc23)cc1`, for which the IC50 in [3] is 3.8 µM. The compound also yielded an inhibition in data set [2] of less than 5%.

In turn, `CS(=O)(=O)c1ccc(-c2oc3ccccc3c(=S)c2-c2ccccc2)cc1` had an IC50 in data set [3] of 0.102 µM. Further, the inhibition in [2] was less than 5%.
